These results are taken from US20110054017A1, “SUBSTITUTED FURANS AND THEIR USE” (priority 2008, published 2011).

This test has as its target T1, Prostacyclin Receptors (IP Receptors) of Human Thrombocyte Membranes (Homo sapiens, UniProt P43119).
T1 construct: Thrombocyte membranes are obtained by centrifuging 50 ml human blood; tissue Maco Pharma, Langen; host or cells: human thrombocyte (platelet) membranes prepared from buffy coats
As to the kind of experiment: Binding to prostacyclin receptors (IP receptors) of human thrombocyte membranes, 3H-Iloprost displacement. The following applies: 3 nM 3H-Iloprost, 60 min, room temperature. Here is the method:
B-1. Studies of Binding to Prostacyclin Receptors (IP Receptors) of Human Thrombocyte Membranes
Thrombocyte membranes are obtained by centrifuging 50 ml human blood (Buffy coats with CDP Stabilizer, from Maco Pharma, Langen) for 20 min at 160×g. Remove the supernatant (platelet-rich plasma, PRP) and then centrifuge again at 2000×g for 10 min at room temperature. Resuspend the sediment in 50 mM tris(hydroxymethyl)aminomethane, which has been adjusted to a pH of 7.4 with 1 N hydrochloric acid, and store at −20° C. overnight. On the next day, centrifuge the suspension at 80 000×g and 4° C. for 30 min. Discard the supernatant. Resuspend the sediment in 50 mM tris(hydroxymethyl)aminomethane/hydrochloric acid, 0.25 mM ethylene diamine tetraacetic acid (EDTA), pH 7.4, and then centrifuge once again at 80 000×g and 4° C. for 30 min. Take up the membrane sediment in binding buffer (50 mM tris(hydroxymethyl)-aminomethane/hydrochloric acid, 5 mM magnesium chloride, pH 7.4) and store at −70° C. until the binding test.
For the binding test, incubate 3 nM ^3H-Iloprost (592 GBq/mmol, from AmershamBioscience) for 60 min with 300-1000 μg/ml human thrombocyte membranes per charge (max. 0.2 ml) in the presence of the test substances at room temperature. After stopping, add cold binding buffer to the membranes and wash with 0.1% bovine serum albumin. After adding Ultima Gold Scintillator, quantify the radioactivity bound to the membranes using a scintillation counter. The nonspecific binding is defined as radioactivity in the presence of 1 μM Iloprost (from Cayman Chemical, Ann Arbor) and is as a rule <25% of the bound total radioactivity. The binding data (IC50 values) are determined using the program GraphPad Prism Version 3.02.

T1 sequence (P43119 whole entry): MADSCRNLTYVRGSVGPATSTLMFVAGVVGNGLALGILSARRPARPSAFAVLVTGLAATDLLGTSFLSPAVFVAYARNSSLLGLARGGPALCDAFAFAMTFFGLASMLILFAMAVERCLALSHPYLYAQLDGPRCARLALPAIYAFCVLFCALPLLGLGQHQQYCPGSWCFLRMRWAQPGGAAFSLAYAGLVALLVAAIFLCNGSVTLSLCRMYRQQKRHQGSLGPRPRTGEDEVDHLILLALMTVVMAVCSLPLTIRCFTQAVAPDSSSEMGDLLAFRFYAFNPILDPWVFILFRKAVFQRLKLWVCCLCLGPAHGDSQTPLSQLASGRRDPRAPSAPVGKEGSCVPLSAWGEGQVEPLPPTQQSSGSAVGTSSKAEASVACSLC

Usually IC50 stands for the concentration at which inhibition is half-maximal. A low value points to greater potency in that assay. `COC(=O)CCCCCNC(=O)c1c(C)oc(-c2ccccc2)c1-c1ccc(OC)cc1` [Example 4, Methyl 6-({[4-(4-methoxyphenyl)-2-methyl-5-phenylfuran-3-yl]carbonyl}amino)hexanoater] registered a concentration for half-maximal inhibition (IC50) of 470 nM.

The molecule `CCc1ccc(-c2c(-c3ccccc3)oc(C)c2C(=O)NCCCCCC(=O)O)cc1` [Example 18] yielded a half-maximal inhibitory concentration (IC50) of 138 nM.

Consider `COc1ccc(-c2c(-c3ccccc3)oc(C)c2C(=O)Nc2cccc(OCC(=O)O)c2)cc1` [Example 20], for which the IC50 was determined as 438 nM.

Molecule `COc1ccc(-c2c(-c3ccccc3)oc(C)c2C(=O)O[C@H](C)CCCCC(=O)O)cc1` [Example 21] registered an IC50 of 315 nM.

In the case of `COc1ccc(-c2c(-c3ccccc3)oc(C)c2C(=O)NC(C)CCCCC(=O)O)cc1` (stereo not drawn) [Example 24], the IC50 was 476 nM.

The molecule `COc1ccc(-c2c(-c3ccccc3)oc(C)c2C(=O)N[C@H](C)CCCCC(=O)O)cc1` [Example 26] showed an IC50 of 670 nM.
